Experimental data reported in PubChem BioAssay (NCI).
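These data come from cells grown in 96-well plates and exposed to compound for 48 hours at five concentrations. Abbreviation: GI50, concentration required for 50% inhibition of growth. TGI: total growth inhibition.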

Experiments:
Assay in all cases: growth of human tumour cells (NCI), 48 h
786-0 renal = test system: 786-0 renal
A498 renal = test system: A498 renal
A549 NSCLC = test system: A549 NSCLC
ACHN renal = test system: ACHN renal
BT-549 breast = test system: BT-549 breast
CAKI-1 renal = test system: CAKI-1 renal
CCRF-CEM leukemia = test system: CCRF-CEM leukemia
COLO 205 colon = test system: COLO 205 colon
DU-145 prostate = test system: DU-145 prostate
HCC-2998 colon = test system: HCC-2998 colon
HCT-116 colon = test system: HCT-116 colon
HCT-15 colon = test system: HCT-15 colon
HL-60(TB) leukemia = test system: HL-60(TB) leukemia
HOP-62 NSCLC = test system: HOP-62 NSCLC
HOP-92 NSCLC = test system: HOP-92 NSCLC
HS 578T breast = test system: HS 578T breast
HT29 colon = test system: HT29 colon
IGROV1 ovarian = test system: IGROV1 ovarian
K-562 leukemia = test system: K-562 leukemia
KM12 colon = test system: KM12 colon
LOX IMVI melanoma = test system: LOX IMVI melanoma
M14 melanoma = test system: M14 melanoma
MALME-3M melanoma = test system: MALME-3M melanoma
MDA-MB-231 breast = test system: MDA-MB-231 breast
MDA-MB-435 = test system: MDA-MB-435
MOLT-4 leukemia = test system: MOLT-4 leukemia
NCI-H460 lung = test system: NCI-H460 lung
NCI-H522 lung = test system: NCI-H522 lung
NCI/ADR-RES ovarian = test system: NCI/ADR-RES ovarian
OVCAR-3 ovarian = test system: OVCAR-3 ovarian
OVCAR-4 ovarian = test system: OVCAR-4 ovarian
OVCAR-5 ovarian = test system: OVCAR-5 ovarian
PC-3 prostate = test system: PC-3 prostate
RPMI-8226 leukemia = test system: RPMI-8226 leukemia
RXF 393 renal = test system: RXF 393 renal
SF-268 CNS = test system: SF-268 CNS
SF-295 CNS = test system: SF-295 CNS
SF-539 CNS = test system: SF-539 CNS
SK-MEL-2 melanoma = test system: SK-MEL-2 melanoma
SK-MEL-28 melanoma = test system: SK-MEL-28 melanoma
SK-MEL-5 melanoma = test system: SK-MEL-5 melanoma
SK-OV-3 ovarian = test system: SK-OV-3 ovarian
SN12C renal = test system: SN12C renal
SNB-19 CNS = test system: SNB-19 CNS
SNB-75 CNS = test system: SNB-75 CNS
SW-620 colon = test system: SW-620 colon
TK-10 renal = test system: TK-10 renal
U251 CNS = test system: U251 CNS
UACC-257 melanoma = test system: UACC-257 melanoma
UACC-62 melanoma = test system: UACC-62 melanoma
UO-31 renal = test system: UO-31 renal

`CC[CH2][Pb]([CH2]CC)([CH2]CC)[O]C(=O)C(F)(F)F` showed a GI50 (786-0 renal) of 165 nM, a TGI (786-0 renal) of 376 nM and a GI50 (A498 renal) of 57.9 nM. The TGI (A498 renal) was 245 nM, the GI50 (A549 NSCLC) was 172 nM and the TGI (A549 NSCLC) was 563 nM. It also gave a GI50 (ACHN renal) of 149 nM, a TGI (ACHN renal) of 458 nM and a GI50 (BT-549 breast) of 222 nM. The TGI (BT-549 breast) was 707 nM, the GI50 (CAKI-1 renal) was 160 nM and the TGI (CAKI-1 renal) was 501 nM. For the same compound, the GI50 (CCRF-CEM leukemia) was 90.6 nM, the TGI (CCRF-CEM leukemia) was 775 nM and the GI50 (COLO 205 colon) was 164 nM. It also gave a TGI (COLO 205 colon) of 374 nM, a GI50 (DU-145 prostate) of 188 nM and a TGI (DU-145 prostate) of 516 nM. For the same compound, the GI50 (HCC-2998 colon) was 163 nM, the TGI (HCC-2998 colon) was 343 nM and the GI50 (HCT-116 colon) was 79.8 nM. It also gave a TGI (HCT-116 colon) of 262 nM, a GI50 (HCT-15 colon) of 124 nM and a TGI (HCT-15 colon) of 587 nM. It also gave a GI50 (HL-60(TB) leukemia) of 44.6 nM, a TGI (HL-60(TB) leukemia) of 247 nM and a GI50 (HOP-62 NSCLC) of 176 nM. For the same compound, the TGI (HOP-62 NSCLC) was 404 nM, the GI50 (HOP-92 NSCLC) was 29.1 nM and the TGI (HOP-92 NSCLC) was 223 nM. The GI50 (HS 578T breast) was 94.7 nM, the TGI (HS 578T breast) was 759 nM and the GI50 (HT29 colon) was 186 nM. For the same compound, the TGI (HT29 colon) was 470 nM, the GI50 (IGROV1 ovarian) was 177 nM and the TGI (IGROV1 ovarian) was 627 nM. The GI50 (K-562 leukemia) was 91.8 nM, the TGI (K-562 leukemia) was 552 nM and the GI50 (KM12 colon) was 125 nM. It also gave a TGI (KM12 colon) of 330 nM, a GI50 (LOX IMVI melanoma) of 89.1 nM and a TGI (LOX IMVI melanoma) of 255 nM. It also gave a GI50 (M14 melanoma) of 91.1 nM, a TGI (M14 melanoma) of 330 nM and a GI50 (MALME-3M melanoma) of 89.4 nM. The TGI (MALME-3M melanoma) was 348 nM, the GI50 (MDA-MB-231 breast) was 142 nM and the TGI (MDA-MB-231 breast) was 440 nM. It also gave a GI50 (MDA-MB-435) of 37.9 nM, a TGI (MDA-MB-435) of 106 nM and a GI50 (MOLT-4 leukemia) of 183 nM. It also gave a TGI (MOLT-4 leukemia) of 627 nM, a GI50 (NCI-H460 lung) of 113 nM and a TGI (NCI-H460 lung) of 398 nM. The GI50 (NCI-H522 lung) was 181 nM, the TGI (NCI-H522 lung) was 348 nM and the GI50 (NCI/ADR-RES ovarian) was 298 nM. For the same compound, the TGI (NCI/ADR-RES ovarian) was 1060 nM, the GI50 (OVCAR-3 ovarian) was 88.5 nM and the TGI (OVCAR-3 ovarian) was 239 nM. The GI50 (OVCAR-4 ovarian) was 38.5 nM, the TGI (OVCAR-4 ovarian) was 178 nM and the GI50 (OVCAR-5 ovarian) was 180 nM. It also gave a TGI (OVCAR-5 ovarian) of 636 nM, a GI50 (PC-3 prostate) of 122 nM and a TGI (PC-3 prostate) of 294 nM. It also gave a GI50 (RPMI-8226 leukemia) of 62.7 nM, a TGI (RPMI-8226 leukemia) of 403 nM and a GI50 (RXF 393 renal) of 72.4 nM. It also gave a TGI (RXF 393 renal) of 277 nM, a GI50 (SF-268 CNS) of 156 nM and a TGI (SF-268 CNS) of 430 nM. It also gave a GI50 (SF-295 CNS) of 182 nM, a TGI (SF-295 CNS) of 434 nM and a GI50 (SF-539 CNS) of 156 nM. The TGI (SF-539 CNS) was 424 nM, the GI50 (SK-MEL-2 melanoma) was 214 nM and the TGI (SK-MEL-2 melanoma) was 462 nM. For the same compound, the GI50 (SK-MEL-28 melanoma) was 124 nM, the TGI (SK-MEL-28 melanoma) was 452 nM and the GI50 (SK-MEL-5 melanoma) was 127 nM. For the same compound, the TGI (SK-MEL-5 melanoma) was 264 nM, the GI50 (SK-OV-3 ovarian) was 275 nM and the TGI (SK-OV-3 ovarian) was 1090 nM. The GI50 (SN12C renal) was 195 nM, the TGI (SN12C renal) was 535 nM and the GI50 (SNB-19 CNS) was 206 nM. It also gave a TGI (SNB-19 CNS) of 810 nM, a GI50 (SNB-75 CNS) of 67.9 nM and a TGI (SNB-75 CNS) of 377 nM. The GI50 (SW-620 colon) was 78.6 nM, the TGI (SW-620 colon) was 253 nM and the GI50 (TK-10 renal) was 204 nM. For the same compound, the TGI (TK-10 renal) was 533 nM, the GI50 (U251 CNS) was 156 nM and the TGI (U251 CNS) was 348 nM. It also gave a GI50 (UACC-257 melanoma) of 154 nM, a TGI (UACC-257 melanoma) of 455 nM and a GI50 (UACC-62 melanoma) of 116 nM. The TGI (UACC-62 melanoma) was 300 nM, the GI50 (UO-31 renal) was 141 nM and the TGI (UO-31 renal) was 409 nM.
